# Laboratory results published in patent US20060241026A1, “Novel cyclic peptides and use thereof as anti-microbial agents” (priority 2002, published 2006).
# Where two headings read alike, the source gives them in different places. Positions of bridges follow the written chain, without caps; N, C: chain ends. Residues, ends and D or L forms follow the SMILES beside them. No end group written: not given here.
# What was measured:
# Format in all cases: cell-based
# Micrococcus luteus = details: for MIC on M leuteus: 24 h
# Procedure: (§1) The activity of the synthetic peptides was tested with respect to the Gram+ bacteria Mycrocossus luteus, Staphylococcus aureus, Staphylococcus epidermidis and Bacillus megaterium. The activities were determined according to the protocol described by HANCOCK et al. (http://www.interchg.ubc.ca/bobh/methods.htm)
# (§2) The MIC was determined for each peptide by inhibition of growth in liquid medium. Doubling dilution of peptide was realized in the wells of a Microtest plate in a volume of 10 μl. The bacteria were grown in MUELLER HINTON BROTH (MHB, Difco) liquid medium. During the exponential growth phase, a solution with an optical density of 0.001 at 600 nm was produced, and 100 μl of this suspension were added to each well. The incubation lasted 24 h at 30° C., and the optical densities of each well were then measured at 600 nm. The value of the MIC corresponds to the first well for which the optical density had not changed.
# (§3) The dishes were incubated for 24 h at 30° C. The value of the MBC corresponds to the lowest concentration of the peptide for which no colony developed.
# [1] = system: Micrococcus lysodeikticus
# Procedure: as §2, §3
# [2] = system: Staphylococcus epidermidis
# Procedure: as §1, §2, §3
# Staphylococcus aureus = system: Staphylococcus aureus
# Procedure: as §1, §2, §3
# [3] = system: Gram+ and Gram− bacteria and a filamentous fungus; assay: Antibiotic tests on Gram+ and Gram- bacteria and on a filamentous fungus, summary in words; details: compared with the native molecule or the minimal loop
# Procedure: as §1, §2, §3
# (§4) The anti-fungal activity was determined by calculating the MIC in a growth inhibition assay for the shrimp parasite fungus Fusarium oxysporum, in liquid phase, according to the protocol described by FELHBAM et al. (J. Biol. Chem., 1994, 269:33159-63). Doubling dilutions of each peptide were realized in the wells of a Microtest plate in a volume of 10 μl. 90 μl of spores resuspended in potato dextrose broth medium (DIFCO) at a final concentration of 10^4 spores/ml were added to each well. The growth inhibition was measured after incubation for 24 h at 25° C. in the dark, by observation under an optical microscope and measurement of the increase in OD at 600 nm. The value of the MIC corresponds to the first well for which the optical density had not increased.
# Using the 3-D structure of the native molecule as a basis, said molecule was fractionated into 17 elements (table I). All these fragments were synthesized and their activities were assayed using antibiotic tests on Gram+ and Gram− bacteria and on a filamentous fungus. The minimum inhibitory concentration (MIC) and minimum […] concentration (MBC) of each peptide were thus determined and were compared with those of the native molecule.
# Fusarium oxysporum = details: 24 h
# Procedure: as §4
# Bacillus megaterium = details: Bacillus
# Procedure: as §1, §2, §3
compound,measurement,setting,value
"RLRSTSYRSG [SEQ ID NO:18, RLRSTSYRSG]",MIC on M leuteus,Micrococcus luteus,>75 µM
"N=C(N)NCCC[C@@H]1NC(=O)[C@H](CCCCN)NC(=O)[C@H](CCCNC(=N)N)NC(=O)[C@H](CCCCN)NC(=O)[C@H](Cc2c[nH]c3ccccc23)NC(=O)[C@H](CCCCN)NC(=O)[C@H](CCCCN)NC(=O)[C@@H](N)CSSC[C@@H](C(=O)O)NC1=O [SEQ ID NO:21, C^(S)KKWKRKRC^(S)] (H-CKKWKRKRC-OH; disulfide 1-9; N-terminus and C-terminus assumed)",Micrococcus lysodeikticus MBC,[1]; Table III,9.9 µM
same,Micrococcus lysodeikticus MIC,[1]; Table III,6 µM
same,Staphylococcus epidermidis MIC,[2]; Table III,6.8 µM
same,Staphylococcus aureus MBC,Staphylococcus aureus; Table III,9.9 µM
same,Staphylococcus aureus MIC,Staphylococcus aureus; Table III,4.4 µM
"CC(C)C[C@@H]1NC(=O)[C@H](CCCNC(=N)N)NC(=O)[C@H](CCCCN)NC(=O)[C@H](Cc2c[nH]c3ccccc23)NC(=O)CNC(=O)CNC(=O)[C@@H](N)CSSC[C@@H](C(=O)O)NC(=O)[C@H](CCCNC(=N)N)NC1=O [SEQ ID NO:19, C^(S)GGWKRLRC^(S)] (H-CGGWKRLRC-OH; disulfide 1-9; N-terminus and C-terminus assumed)",Micrococcus lysodeikticus MIC,[1],13 µM
same,Staphylococcus aureus MBC,Staphylococcus aureus,20 µM
same,Staphylococcus aureus MIC,Staphylococcus aureus,33 µM
"PNNYQSHRHSKSIPGRGR [SEQ ID NO:10, PNNYQSHRHSKSIPGRGR]",MIC on M leuteus,Micrococcus luteus,>75 µM
"NYQSHRHSKS [SEQ ID NO:13, NYQSHRHSKS]",MIC on M leuteus,Micrococcus luteus,>75 µM
"N=C(N)NCCC[C@@H]1NC(=O)[C@H](CCCCN)NC(=O)[C@H](Cc2c[nH]c3ccccc23)NC(=O)[C@@H](N)CSSC[C@@H](C(=O)O)NC(=O)[C@H](CCCCN)NC1=O [SEQ ID NO:24, C^(S)WKRKC^(S)] (H-CWKRKC-OH; disulfide 1-6; N-terminus and C-terminus assumed)",Micrococcus lysodeikticus MIC,[1]; Table III,>50 µM
same,Staphylococcus aureus MBC,Staphylococcus aureus; Table III,>50 µM
same,Staphylococcus aureus MIC,Staphylococcus aureus; Table III,>50 µM
same,anti-microbial activity (in words),[3],does not exhibit any significant biological activity
"N=C(N)NCCC[C@@H]1NC(=O)[C@H](CCCCN)NC(=O)[C@H](CCCNC(=N)N)NC(=O)[C@H](CCCCN)NC(=O)[C@H](Cc2c[nH]c3ccccc23)NC(=O)[C@@H](N)CSSC[C@@H](C(=O)O)NC1=O [SEQ ID NO:23, C^(S)WKRKRC^(S)] (H-CWKRKRC-OH; disulfide 1-7; N-terminus and C-terminus assumed)",Micrococcus lysodeikticus MIC,[1]; Table III,22.2 µM
same,Staphylococcus aureus MBC,Staphylococcus aureus; Table III,22.2 µM
same,Staphylococcus aureus MIC,Staphylococcus aureus; Table III,22.2 µM
same,anti-microbial activity (in words),[3],weaker
"SKSIPGRSG [SEQ ID NO:14, SKSIPGRSG]",MIC on M leuteus,Micrococcus luteus,>75 µM
same,anti-microbial activity (in words),[3],show no activity
"SGGWHRLRS [SEQ ID NO:17, SGGWHRLRS]",MIC on M leuteus,Micrococcus luteus,>75 µM
same,anti-microbial activity (in words),[3],devoid of activity
GFGSPNNYQSHRHSKSIPGR [SEQ ID NO:9],MIC on M leuteus,Micrococcus luteus,>75 µM
"CC[C@H](C)[C@@H]1NC(=O)[C@H](CO)NC(=O)[C@H](CCCCN)NC(=O)[C@@H](NC(=O)[C@H](Cc2c[nH]cn2)NC(=O)[C@H](CCCNC(=N)N)NC(=O)[C@H](Cc2c[nH]cn2)NC(=O)[C@H](CO)NC(=O)[C@H](CCC(N)=O)NC(=O)[C@H](Cc2ccc(O)cc2)NC(=O)[C@H](CC(N)=O)NC(=O)[C@H](CC(N)=O)NC(=O)[C@@H]2CCCN2)CSSC[C@@H](C(=O)O)NC(=O)[C@H](CCCNC(=N)N)NC(=O)CNC(=O)[C@@H]2CCCN2C1=O [SEQ ID NO:11, PNNYQSHRHCKSIPGRC] (H-PNNYQSHRHCKSIPGRC-OH; disulfide 10-17; N-terminus and C-terminus assumed)",MIC on M leuteus,Micrococcus luteus,>75 µM
"CC(C)C[C@@H]1NC(=O)[C@H](CCCNC(=N)N)NC(=O)[C@H](Cc2c[nH]cn2)NC(=O)[C@H](Cc2c[nH]c3ccccc23)NC(=O)CNC(=O)CNC(=O)[C@@H](NC(=O)[C@H](Cc2ccc(O)cc2)NC(=O)CNC(=O)CNC(=O)[C@@H](N)CO)CSSC[C@@H](C(=O)N[C@H](C(=O)N[C@@H](CO)C(=O)N[C@@H](Cc2ccc(O)cc2)C(=O)N[C@@H](CCCNC(=N)N)C(=O)N[C@@H](CO)C(=O)NCC(=O)O)[C@@H](C)O)NC(=O)[C@H](CCCNC(=N)N)NC1=O [SEQ ID NO:6, SGGYC^(S)GGWHRLRC^(S)TSYRSG] (H-SGGYCGGWHRLRCTSYRSG-OH; disulfide 5-13; N-terminus and C-terminus assumed)",Fusarium oxysporum MIC,Fusarium oxysporum,14 µM
same,Staphylococcus epidermidis MBC,[2],>75 µM
same,Staphylococcus epidermidis MIC,[2],24 µM
same,Micrococcus luteus MBC,Micrococcus luteus,>75 µM
same,Micrococcus luteus MIC,Micrococcus luteus,29 µM
same,MIC on M leuteus,Micrococcus luteus,32 µM
same,Staphylococcus aureus MBC,Staphylococcus aureus,75 µM
same,Staphylococcus aureus MIC,Staphylococcus aureus,19 µM
same,Bacillus megaterium MBC,Bacillus megaterium,>75 µM
same,Bacillus megaterium MIC,Bacillus megaterium,25 µM
"PNNYQSHRHSKSIPGRS [SEQ ID NO:12, PNNYQSHRHSKSIPGRS]",MIC on M leuteus,Micrococcus luteus,>75 µM
"GFGSPNNYQS [SEQ ID NO:8, GFGSPNNYQS]",MIC on M leuteus,Micrococcus luteus,>75 µM
"N=C(N)NCCC[C@@H]1NC(=O)[C@H](CCCCN)NC(=O)[C@H](CCCNC(=N)N)NC(=O)[C@H](CCCCN)NC(=O)[C@H](Cc2c[nH]c3ccccc23)NC(=O)CNC(=O)CNC(=O)[C@@H](N)CSSC[C@@H](C(=O)O)NC1=O [SEQ ID NO:20, C^(S)GGWKRKRC^(S)] (H-CGGWKRKRC-OH; disulfide 1-9; N-terminus and C-terminus assumed)",Micrococcus lysodeikticus MIC,[1],8 µM
same,Staphylococcus aureus MBC,Staphylococcus aureus,16 µM
same,Staphylococcus aureus MIC,Staphylococcus aureus,23 µM
"CC[C@H](C)[C@@H]1NC(=O)[C@H](CO)NC(=O)[C@H](CCCCN)NC(=O)[C@@H](N)CSSC[C@@H](C(=O)NCC(=O)O)NC(=O)[C@H](CCCNC(=N)N)NC(=O)CNC(=O)[C@@H]2CCCN2C1=O [SEQ ID NO:15, CKSIPGRCG] (H-CKSIPGRCG-OH; disulfide 1-8; N-terminus and C-terminus assumed)",MIC on M leuteus,Micrococcus luteus,>75 µM
same,anti-microbial activity (in words),[3],show no activity
"N=C(N)NCCC[C@@H]1NC(=O)[C@H](CCCCN)NC(=O)[C@H](CCCNC(=N)N)NC(=O)[C@H](CCCCN)NC(=O)[C@H](Cc2c[nH]c3ccccc23)NC(=O)[C@H](CCCCN)NC(=O)[C@@H](N)CSSC[C@@H](C(=O)O)NC1=O [SEQ ID NO:22, C^(S)KWKRKRC^(S)] (H-CKWKRKRC-OH; disulfide 1-8; N-terminus and C-terminus assumed)",Micrococcus lysodeikticus MBC,[1]; Table III,14.8 µM
same,Micrococcus lysodeikticus MIC,[1]; Table III,14.8 µM
same,Staphylococcus aureus MBC,Staphylococcus aureus; Table III,14.8 µM
same,Staphylococcus aureus MIC,Staphylococcus aureus; Table III,6.6 µM
"C[C@@H](O)[C@@H]1NC(=O)[C@H](CO)NC(=O)[C@H](CO)NC(=O)[C@H](Cc2ccc(O)cc2)NC(=O)CNC(=O)CNC(=O)[C@@H](N)CSSC[C@@H](C(=O)NCC(=O)O)NC(=O)[C@H](CCCNC(=N)N)NC(=O)[C@H](Cc2ccc(O)cc2)NC(=O)[C@H](CO)NC1=O [SEQ ID NO:16, CGGYSSTSYRCG] (H-CGGYSSTSYRCG-OH; disulfide 1-11; N-terminus and C-terminus assumed)",MIC on M leuteus,Micrococcus luteus,>75 µM
same,anti-microbial activity (in words),[3],do not comprise any intrinsic activity
